Results on three compounds are retold here after US6969732B2, “Propylisopropyl acetic acid and propylisopropyl acetamide stereoisomers, a method for their synthesis and pharmaceutical compositions containing them” (Yissum Research Development Company of the Hebrew …, priority 1999, dated 2005).

The structures appear in SMILES notation. Like-named read-outs stand apart in the source and are kept apart here. Marks after values point to notes of the source that are not given here.

Type in all cases: in vivo
One data set relates to mice. Put plainly: Subcutaneous pentylenetetrazol (sc Met) test in mice. To be noted: for sc Met: intraperitoneal administration. An excerpt:
Individual enantiomers of PID were screened in mice for their anticonvulsant activity (by the NIH Epilepsy Branch) following intraperitoneal administration to mice by employing a screening procedure which involves: (i) the maximal electoshock (MES) test, which measures seizure spread; (ii) the subcutaneous pentylenetetrazol test sc. Met. Test), which measures seizure threshold; and (iii) the rotorod ataxia test, which assesses neurotoxicity.

A short description of data set [1]: Pharmacokinetic studies in mongrel dogs, intravenous injection. To be noted: for clearance / MRT / half-life / Vd: mongrel, dog, plasma; for clearance: read-out: CL (clearance) (converted); for MRT: read-out: MRT (Mean Residence Time); for half-life: read-out: t½ (converted); for Vd: iv. The method, then: Pharmacokinetic experiments were carried out on six mongrel dogs weighing 18-25 kg. Dogs were housed in an animal farm and were brought to the lab repeatedly every two-three weeks for crossover experiments after an overnight fast. Each dog was inserted with a urine (Levin's tube, Pennine Healthcare, Derby, UK) and two venous (20G/32 mm Venflon 2, Ohmeda, Helsingborg, Sweden) catheters located on different legs. Dogs were fed with commercial dog food four hours after drug injection, and had free access to water during the whole experiment.
Each dog was intravenously injected with […] (10 mg/kg) of each enantiomer separately or […] of the racemate, dissolved in 2 ml of 96% ethyl alcohol. Venous blood samples (6 ml) were withdrawn via an indwelling catheter from the other leg than used for injection, and transferred into heparinized tubes. The blood samples were centrifuged at 3000 g for 10 minutes, plasma was then separated and stored at […] until analyzed. Blood collection commenced at 5 minutes, and continued up to 12 hours after injection. Urine samples were collected in 1-2 hour intervals beginning at 1 hour and up to 12 hours after injection. The urine volume was recorded and an aliquot was stored at […] until analyzed.
Assay of plasma samples: to test tubes containing 2 μg of the internal standard (diisopropyl acetamide), 0.5 ml of plasma (thawed at room temperature) and 5 ml of tert-butyl methyl ether (TBME) was added. The test tubes were vigorously vortexed for 30 sec and centrifuged at 3000 g for 10 minutes. The organic phase was separated and dried under reduced pressure using a vortex evaporator. Samples were then reconstituted with 150 μl of chloroform and dried under reduced pressure without vortexing. The sample was again reconstituted with 30 μl of chloroform, of which 2 μl were injected into the GC apparatus.
The column used for the chromatographic analysis of PID enantiomers was a Mosandl-methyl capillary column (10 m, 0.25 mm, 0.25 μm) coated with: Heptakis (2,3-di-O-methyl-6-O-tert-butyldimethylsilyl)-β-cyclodextrin as the stationary phase and nitrogen as carrier gas (takeo carbohydr res). Column head pressure was set at 50 KPa, split ratio 1:30, oven temperature 120° C., injector temperature 250° C. and detector temperature 250° C.

For a further data set, the system named is anaesthetized rats. Put plainly: Dural plasma protein (BSA) extravasation evoked by unilateral trigeminal ganglion stimulation. To be noted: FIG. 7. The text has this: The animal model used in this study is the one developed by Moskowitz et al. (F. M. Cutrer, V. Limmroth and M. A. Moskowitz: Possible mechanisms of valproate in migraine prophylaxis, Cephalalgia 17:93-100 (1997)). Moskowitz et. al. examined the plasma protein extravasation following electrical trigeminal ganglion stimulation or intravenous administration of substance P. It was concluded that in this model valproic acid blocks plasma extravasation in the meninges through GABAA-mediated postjunctional receptors probably within the meninges. […] Thus, agonists and modulators at the GABAA receptor may become useful for the development of selective drugs for migraine and cluster headache (W. S. Lee et. al.: Peripheral GABAA receptor mediated effects of sodium valproate on durnal plasma protein extravasation to substance P and trigeminal stimulation, Toward Migraine 2000, F. C. Rose Ed. Elsevier, Amsterdam, 1996, pp.289-319).
We tested the effects of PID on dural plasma protein (Bovine Serum Albumine—BSA) extravasation evoked by unilateral trigeminal gangelion stimulation in anaesthetized rats.

Where [2] appears, read: enantiomer given in a racemic mixture, 20 mg/kg iv.
Where [3] appears, read: given as individual enantiomers, 10 mg/kg iv.
Where [4] appears, read: 10 mg/kg, given as individual enantiomers, 10 mg/kg iv, read-out: Vss.
Setting [5] is: 10 mg/kg, given as individual enantiomers, 10 mg/kg iv, read-out: Vβ (volume of distribution).
[6] abbreviates: 20 mg/kg, enantiomer given in a racemic mixture, 20 mg/kg iv, read-out: Vss.
[7] abbreviates: ratio (S)-PID to (R)-PID, individual enantiomers, 10 mg/kg iv.
[8] abbreviates: ratio (S)-PID to (R)-PID, racemic mixture, 20 mg/kg iv.

In general, clearance refers to the volume of plasma or blood freed of the substance per unit of time. As usually defined, the MRT is a mean duration of stay, worked out from the concentration-time curve. As to `CCC[C@@H](C(N)=O)C(C)C` [(R)-PID, (R)-propylisopropyl acetamide], the “anticonvulsant activity compared with (2S)-PID, sc Met test” value in the data set on mice (mice, i.p. administration) was “more active and showed better potency than (2S)-PID”. For the same compound, the “sc Met” value in the data set on mice (mice) was 67. Moreover, in data set [1] (setting [2]), the “E (liver extraction ratio)” value is 12.5 ± 4.0%, the Vb stood at 10.2 ± 0.9 L, the “fe (fraction excreted unchanged in the urine)” value is given as 0.60 ± 0.45% and the clearance was 100 mL/min. Besides, in data set [1] (setting [2]), the MRT turned out to be 2.83 ± 0.6 h and the half-life was 1.25 ± 0.3 h. Further, in data set [1] (setting [3]), the “E (liver extraction ratio)” value amounted to 15.0 ± 4.6%, the “fe (fraction excreted unchanged in the urine)” value turned out to be 0.50 ± 0.4%, the clearance is 113 mL/min and the MRT came out at 2.57 ± 0.5 h. Also, in data set [1] (setting [3]), the half-life was 1.37 ± 0.2 h. Moreover, in data set [1] (iv administration), the “clearance compared with (2S)-PID” value is reported as “lower clearance” and the “half-life compared with (2S)-PID” value is recorded as “longer half-life”. Moreover, the Vd in data set [1] (setting [4]) is 16 ± 1.2 L. Also, the Vd in data set [1] (setting [5]) was found to be 13.1 ± 2.2 L. Besides, the Vd in data set [1] (setting [6]) came to 15.7 ± 1.5 L.
As to `CCC[C@H](C(N)=O)C(C)C` [(S)-PID, (S)-propylisopropyl acetamide], the “sc Met” value with mice (mice) is listed as 80. In addition, in the data set on mice (ratio (S)-PID to (R)-PID, mice ip), the “sc Met S/R” value was determined as 1.19. In data set [1] (setting [2]), the “E (liver extraction ratio)” value is 12.1 ± 4.1%, the Vb is listed as 10.4 ± 1.4 L, the “fe (fraction excreted unchanged in the urine)” value came out at 0.66 ± 0.46% and the clearance was 100 mL/min. In data set [1] (setting [2]), the MRT amounted to 2.87 ± 0.7 h and the half-life was 1.27 ± 0.3 h. For the same compound, in data set [1] (setting [3]), the “E (liver extraction ratio)” value worked out at 23.7 ± 3.5%, the “fe (fraction excreted unchanged in the urine)” value is given as 0.40 ± 0.4%, the clearance is 188 mL/min and the MRT was determined as 1.83 ± 0.3 h. The half-life in data set [1] (setting [3]) was 1.04 ± 0.1 h. The Vd in data set [1] (setting [4]) was 19.1 ± 2.7 L. Also, in data set [1] (setting [5]), the Vd is 17 ± 2.9 L. For the same compound, the Vd in data set [1] (setting [6]) amounted to 15.7 ± 0.9 L. Moreover, in data set [1] (setting [7]), the “E S/R” value is reported as 1.58*, the “Vβ S/R” value stood at 1.29 and the “fe S/R” value is listed as 0.78*. Moreover, in data set [1] (setting [8]), the “E S/R” value was determined as 1.0, the “Vb S/R” value stood at 1.0 and the “fe S/R” value came out at 1.1.
Take `CCCC(C(N)=O)C(C)C` (centres unmarked) [PID, propylisopropyl acetamide]: the “sc Met” value with mice (mice) stood at 77. Further, in the data set with anaesthetized rats, the “effect on dural plasma protein extravasation” value is “has inhibitory effects on the dural plasma protein extravasation”. The stereospecificity of kinetics result in data set [1] (enantiomers given individually, FIG. 4) is “clear stereospecific kinetics”; in data set [1] (given in a racemic mixture, FIG. 5), “no sterospecifity is observed”.
